# Results published in patent US20260144769A1, “4-PHENYLBUTYRATE RESTORED GABA UPTAKE AND REDUCED SEIZURES IN SLC6A1 VARIANT-MEDIATED DISORDERS” (Vanderbilt University, priority 2022, published 2026).
# Columns and labels:
# [1] = test system: GAT-1; test: GAT-1 protein expression (SDS-PAGE, anti-GAT-1 blot), patient human astrocytes; format: cell-based; details: PBA 2 mM
# Procedure: FIGS. 6A-B show human patient corrected (isogenic control, Corr) or uncorrected patient (Pat) astrocytes at day 30-35 after differentiation from iPSCs were co-transfected with the endoplasmic reticulum (ER) marker ER^CFP in combination with the wildtype or the mutant GAT-1^YFP cDNAs (0.5 μg: 0.5 μg per a 35 mm^2 dish) for 48 hrs before confocal microscopy analysis. Confocal images were acquired in live astrocytes under 63× objective with zoom under 2.5×. […] FIG. 6B represents the ER overlapping signal of GAT-1^YFP analyzed by Metamorph. […] Membranes were blotted with a rabbit polyclonal anti-GAT-1 antibody (FIG. 6C). The lysates of Chinese hamster ovary (CHO) cells were used as control. […] Values were expressed as mean±S.E.M.). […]
# Data were expressed as mean±SEM. Proteins were quantified by Odyssey software and data were normalized to loading controls and then to the wildtype subunit protein, which was arbitrarily taken as 1 in each experiment. Fluorescence intensities from confocal microscopy experiments were determined using MetaMorph imaging software, and the measurements were carried out in ImageJ. […]
# [2] = test system: neural progenitor cells; test: GABA uptake in neural progenitor cells; format: cell-based; details: NPCs; data not shown
# Procedure: NPCs were differentiated from iPSCs at passage 22-24 with differentiation of neural progenitor cells (NPCs) was induced by STEMdiff SMADi Neural induction kit from […]. iPSCs were seeded in a Geltrex coated dish at a density of ˜2×10^6 cells/per one 35 mm^2 dish or 6 well plate. The medium was refreshed daily, and the cells were passaged at day 5-7. NPCs at Passage 1 which was at least 10-12 days after neural induction were used for this study.
# Briefly, cells were cultured in […] dishes for 3 days before the GABA uptake experiment in DMEM with 10% fetal bovine serum and 1% penicillin/streptomycin. The cells were then transfected with equal amounts of the wildtype or the mutant GAT-1 cDNAs (1 μg) for each condition at 24 hrs or 48 hrs after plating. GABA uptake assay was carried out 48 hrs after transfection. The cells were incubated with preincubation solution for 15 min and then incubated with preincubation solution containing 1 μci/mL 3H GABA and 10 μM unlabeled GABA for 30 min at room temperature. After washing, the cells were lysed with 0.25 N NaOH for 1 hr. Glacial acetic acid was added, and lysates were then determined on a liquid scintillator with QuantaSmart. The flux of GABA (pmol/μg/min) was averaged with at least triplets for each condition at each transfection. The average counting was taken as n=1. […]
compound,measurement,setting,value
"O=C(O)CCCc1ccccc1 [PBA, 4-phenylbutyric acid]",GAT-1 expression normalized to its own genotype DMSO treated,[1]; 24 hrs,1.39±0.046
same,total GAT-1 protein of the patient astrocytes as % of the corrected,[1]; 24 hrs (52.2% untreated),73.2%
same,GABA uptake in neural progenitor cells after PBA treatment,[2],increase
